Experiments:
[1] = system: LOLRI; assay: Herbicidal pre-emergence action (Table A3); type: in vivo, Lolium rigidum; settings: visual grading after ca. 3 weeks; for pest or weed control at 1280 g/ha: Lolium rigidum, pre-emergence, 504 h, read-out: pre-emergence activity against LOLRI
Excerpt: (§1) Seeds of mono- and dicotyledonous weed plants were sown in plastic pots (double sowings with one species of mono- and one species of dicotyledonous weed plants per pot), in sandy loam, and covered with soil.

[2] = system: POAAN; assay: Herbicidal pre-emergence action (Table A7); type: in vivo, Poa annua; settings: visual grading after ca. 3 weeks; for pest or weed control at 320 g/ha: Poa annua, pre-emergence, 504 h, read-out: pre-emergence activity against POAAN
Excerpt: as §1

[3] = system: ALOMY; assay: Herbicidal pre-emergence action (Table A9); type: in vivo, Alopecurus myosuroides; settings: application rate 1280 g/ha; visual grading after ca. 3 weeks
Excerpt: as §1

[4] = system: DIGSA; assay: Herbicidal pre-emergence action (Table A12); type: in vivo, Digitaria sanguinalis; settings: visual grading after ca. 3 weeks
Excerpt: as §1

[5] = system: POAAN; assay: Herbicidal post-emergence action (Table B7); type: in vivo, Poa annua; settings: application rate 1280 g/ha
Description: (§2) Seeds of mono- and dicotyledonous weed plants were placed in plastic pots in sandy loam soil (doubly sown with in each case one species of mono- or dicotyledonous weed plants per pot), covered with soil and cultivated in a greenhouse under controlled growth conditions. 2 to 3 weeks after sowing, the test plants were treated at the one-leaf stage. […] After the test plants had been kept in the greenhouse under optimum growth conditions for about 3 weeks, the activity of the preparations was rated visually in comparison to untreated controls. For example, 100% activity = the plants have died, 0% activity = like control plants.

[6] = system: SETVI; assay: Herbicidal post-emergence action (Table B8); type: in vivo, Setaria viridis
Description: as §2

[7] = system: ECHCG; assay: Herbicidal pre-emergence action (Table A2); type: in vivo, Echinochloa crus-galli; settings: visual grading after ca. 3 weeks
Excerpt: as §1

[8] = system: SETVI; assay: Herbicidal pre-emergence action (Table A5); type: in vivo, Setaria viridis; settings: visual grading after ca. 3 weeks
Excerpt: as §1

[9] = system: VERPE; assay: Herbicidal pre-emergence action (Table A11); type: in vivo, Veronica persica; settings: application rate 1280 g/ha; visual grading after ca. 3 weeks
Excerpt: as §1

[10] = system: VERPE; assay: Herbicidal post-emergence action (Table B10); type: in vivo, Veronica persica
Description: as §2

[11] = system: ECHCG; assay: Herbicidal pre-emergence action, section C (Table C6); type: in vivo, Echinochloa crus-galli; settings: application rate 320 g/ha; visual grading after ca. 3 weeks
[12] = system: VIOTR; assay: Herbicidal pre-emergence action, section C (Table C12); type: in vivo, Viola tricolor; settings: application rate 320 g/ha; visual grading after ca. 3 weeks
[13] = system: STEME; assay: Herbicidal pre-emergence action (Table A6); type: in vivo, Stellaria media; settings: visual grading after ca. 3 weeks
Excerpt: as §1

[14] = system: ECHCG; assay: Herbicidal post-emergence action (Table B3); type: in vivo, Echinochloa crus-galli; settings: application rate 1280 g/ha, rated visually after about 3 weeks
Description: as §2

[15] = system: MATIN; assay: Herbicidal pre-emergence action (Table A4); type: in vivo, Matricaria inodora; settings: visual grading after ca. 3 weeks
Excerpt: as §1

[16] = system: KCHSC; assay: Herbicidal pre-emergence action (Table A10); type: in vivo, Kochia scoparia; settings: application rate 1280 g/ha; visual grading after ca. 3 weeks
Excerpt: as §1

Cc1nc(Cl)sc1CN1CCCC2(CCCN(Cc3sc(Cl)nc3C)C2=O)C1=O (racemic) [I-201, 2,8-bis[(2-chloro-4-methyl-1,3-thiazol-5-yl)methyl]-2,8-diazaspiro[5.5]undecane-1,7-dione]
pest or weed control at 1280 g/ha ([1]; application rate 1280 g/ha): 100% | pest or weed control at 320 g/ha ([2]; application rate 320 g/ha): 100% | pre-emergence activity against ALOMY [3]: 100% | pre-emergence activity against DIGSA ([4]; application rate 1280 g/ha): 90% | post-emergence activity against POAAN [5]: 90% | post-emergence activity against SETVI ([6]; application rate 1280 g/ha): 90%

O=C1N(Cc2ccccc2Cl)CCCC12CCCN(Cc1ccccc1Cl)C2=O (racemic) [I-054]
pre-emergence activity against ECHCG ([7]; application rate 320 g/ha): 100% | pre-emergence activity against SETVI ([8]; application rate 320 g/ha): 100% | pre-emergence activity against POAAN ([2]; application rate 320 g/ha): 100% | pre-emergence activity against VERPE [9]: 90% | post-emergence activity against VERPE ([10]; application rate 1280 g/ha): 90%

O=C1N(Cc2cc(F)c(F)cc2F)CCCC12CCCN(Cc1cc(F)c(F)cc1F)C2=O (single isomer, unassigned; (-)) [I-214, (-)-2,8-bis(2,4,5-trifluorophenylmethyl)-2,8-diazaspiro[5.5]undecane-1,7-dione]
pre-emergence activity against ECHCG [11]: 100% | pre-emergence activity against VIOTR [12]: 80%

COc1cccc(F)c1CN1CCCC2(CCCN(Cc3c(F)cccc3OC)C2=O)C1=O (racemic) [I-033]
pre-emergence activity against STEME ([13]; application rate 1280 g/ha): 100% | pre-emergence activity against POAAN ([2]; application rate 320 g/ha): 100% | pre-emergence activity against ALOMY [3]: 90% | pre-emergence activity against VERPE [9]: 90% | pre-emergence activity against DIGSA ([4]; application rate 1280 g/ha): 100%

O=C1N(Cc2ccccc2F)CCCC12CCCN(Cc1ccccc1F)C2=O (single isomer, unassigned) [I-056]
pre-emergence activity against ECHCG ([7]; application rate 1280 g/ha): 100% | pre-emergence activity against LOLRI ([1]; application rate 1280 g/ha): 100% | pre-emergence activity against SETVI ([8]; application rate 1280 g/ha): 100% | pre-emergence activity against STEME ([13]; application rate 1280 g/ha): 90% | pre-emergence activity against POAAN ([2]; application rate 320 g/ha): 100% | pre-emergence activity against DIGSA ([4]; application rate 1280 g/ha): 100% | post-emergence activity against VERPE ([10]; application rate 1280 g/ha): 90%

Cc1ccccc1CN1CCCC2(CCCN(Cc3c(F)cccc3F)C2=O)C1=O (racemic) [I-051]
pre-emergence activity against ECHCG ([7]; application rate 320 g/ha): 100% | pre-emergence activity against LOLRI ([1]; application rate 320 g/ha): 100% | pre-emergence activity against SETVI ([8]; application rate 320 g/ha): 100% | pre-emergence activity against POAAN ([2]; application rate 1280 g/ha): 90% | pre-emergence activity against ALOMY [3]: 90% | pre-emergence activity against VERPE [9]: 90% | post-emergence activity against ECHCG [14]: 90% | post-emergence activity against POAAN [5]: 90% | post-emergence activity against SETVI ([6]; application rate 1280 g/ha): 90%

O=C1N(Cc2ccccc2F)CCCC12CCCN(Cc1ccccc1Cl)C2=O (racemic) [I-036]
pre-emergence activity against ECHCG ([7]; application rate 320 g/ha): 100% | pre-emergence activity against LOLRI ([1]; application rate 320 g/ha): 100% | pre-emergence activity against MATIN ([15]; application rate 320 g/ha): 90% | pre-emergence activity against SETVI ([8]; application rate 320 g/ha): 100% | pre-emergence activity against POAAN ([2]; application rate 320 g/ha): 90% | pre-emergence activity against ALOMY [3]: 90% | post-emergence activity against ECHCG [14]: 90% | post-emergence activity against POAAN [5]: 90% | post-emergence activity against SETVI ([6]; application rate 1280 g/ha): 90%

O=C1N(Cc2ccccc2)CCCC12CCN(Cc1ccccc1F)C2=O (racemic) [I-059]
pre-emergence activity against ECHCG ([7]; application rate 320 g/ha): 100% | pre-emergence activity against LOLRI ([1]; application rate 1280 g/ha): 100% | pre-emergence activity against MATIN ([15]; application rate 1280 g/ha): 90% | pre-emergence activity against SETVI ([8]; application rate 320 g/ha): 100% | pre-emergence activity against STEME ([13]; application rate 1280 g/ha): 90% | pre-emergence activity against POAAN ([2]; application rate 320 g/ha): 100% | pre-emergence activity against KCHSC [16]: 90% | pre-emergence activity against DIGSA ([4]; application rate 320 g/ha): 90% | post-emergence activity against ECHCG [14]: 90% | post-emergence activity against POAAN [5]: 90%

O=C1N(Cc2cccs2)CCCC12CCCN(Cc1ccccc1Cl)C2=O (centres unmarked) [I-062]
pre-emergence activity against ECHCG ([7]; application rate 1280 g/ha): 100% | pre-emergence activity against LOLRI ([1]; application rate 320 g/ha): 100% | pre-emergence activity against SETVI ([8]; application rate 320 g/ha): 100% | pre-emergence activity against STEME ([13]; application rate 320 g/ha): 90% | pre-emergence activity against POAAN ([2]; application rate 320 g/ha): 100% | post-emergence activity against POAAN [5]: 90% | post-emergence activity against VERPE ([10]; application rate 1280 g/ha): 90%

CC(c1ccccc1F)N1CCCC2(CCCN(C(C)c3ccccc3F)C2=O)C1=O (centres unmarked) [I-115]
pre-emergence activity against SETVI ([8]; application rate 1280 g/ha): 100% | pre-emergence activity against STEME ([13]; application rate 1280 g/ha): 100% | pre-emergence activity against POAAN ([2]; application rate 1280 g/ha): 90% | post-emergence activity against VERPE ([10]; application rate 1280 g/ha): 90%

O=C1N(Cc2ccc(F)c(F)c2F)CCCC12CCCN(Cc1ccc(F)c(F)c1F)C2=O (racemic) [I-189, 2,8-bis(2,3,4-trifluorophenylmethyl)-2,8-diazaspiro[5.5]undecane-1,7-dione]
pre-emergence activity against ECHCG ([7]; application rate 320 g/ha): 100% | pest or weed control at 1280 g/ha ([1]; application rate 1280 g/ha): 100% | pre-emergence activity against MATIN ([15]; application rate 1280 g/ha): 90% | pre-emergence activity against SETVI ([8]; application rate 320 g/ha): 100% | pre-emergence activity against STEME ([13]; application rate 1280 g/ha): 90% | pest or weed control at 320 g/ha ([2]; application rate 320 g/ha): 100% | pre-emergence activity against ALOMY [3]: 100% | pre-emergence activity against KCHSC [16]: 100% | pre-emergence activity against DIGSA ([4]; application rate 320 g/ha): 90% | pest or weed control at 1280 g/ha ([14]; Echinochloa crus-galli, post-emergence, 504 h, read-out: post-emergence activity against ECHCG): 90% | post-emergence activity against SETVI ([6]; application rate 320 g/ha): 90%

O=C1N(Cc2ccccc2C(F)(F)F)CCCC12CCCN(Cc1ccccc1C(F)(F)F)C2=O (racemic) [I-091]
pre-emergence activity against ECHCG ([7]; application rate 1280 g/ha): 100% | pre-emergence activity against POAAN ([2]; application rate 1280 g/ha): 100% | pre-emergence activity against DIGSA ([4]; application rate 1280 g/ha): 100% | post-emergence activity against VERPE ([10]; application rate 320 g/ha): 90%

Cc1ccccc1CN1CCCC2(CCCN(Cc3ccccc3)C2=O)C1=O (racemic) [I-092]
pre-emergence activity against ECHCG ([7]; application rate 320 g/ha): 100% | pre-emergence activity against LOLRI ([1]; application rate 1280 g/ha): 100% | pre-emergence activity against SETVI ([8]; application rate 320 g/ha): 90% | post-emergence activity against POAAN [5]: 90% | post-emergence activity against VERPE ([10]; application rate 320 g/ha): 90%

O=C1N(Cc2ccsc2)CCCC12CCCN(Cc1c(F)cccc1F)C2=O (racemic) [I-075]
pre-emergence activity against ECHCG ([7]; application rate 320 g/ha): 100% | pre-emergence activity against LOLRI ([1]; application rate 320 g/ha): 100% | pre-emergence activity against MATIN ([15]; application rate 1280 g/ha): 90% | pre-emergence activity against SETVI ([8]; application rate 320 g/ha): 90% | pre-emergence activity against STEME ([13]; application rate 1280 g/ha): 100% | pre-emergence activity against POAAN ([2]; application rate 1280 g/ha): 100% | pre-emergence activity against ALOMY [3]: 90% | post-emergence activity against ECHCG [14]: 90% | post-emergence activity against POAAN [5]: 90%

O=C1N(Cc2ccccc2F)CCC12CCCN(Cc1cccc(F)c1F)C2=O (racemic) [I-085]
pre-emergence activity against ECHCG ([7]; application rate 1280 g/ha): 100% | pre-emergence activity against LOLRI ([1]; application rate 320 g/ha): 100% | pre-emergence activity against MATIN ([15]; application rate 320 g/ha): 90% | pre-emergence activity against SETVI ([8]; application rate 1280 g/ha): 100% | pre-emergence activity against STEME ([13]; application rate 320 g/ha): 90% | pre-emergence activity against POAAN ([2]; application rate 320 g/ha): 100% | pre-emergence activity against ALOMY [3]: 90% | pre-emergence activity against KCHSC [16]: 90% | pre-emergence activity against DIGSA ([4]; application rate 320 g/ha): 90% | post-emergence activity against POAAN [5]: 90% | post-emergence activity against SETVI ([6]; application rate 1280 g/ha): 90%
